Laboratory results: EP4667483A1, “HUMAN TRANSFERRIN RECEPTOR-BINDING PEPTIDE” (JCR Pharmaceuticals Co., Ltd., priority 2023, dated 2024)
Numbered stars: 1 amine (or outer) side, 2 acyl side, 3 side chain; on linkers, the order of the positions; unused ones are H or OH. Bridge positions count the residues as written; N and C are the ends. Square brackets hold non-standard residues; d marks the D form. Peptide text beside a SMILES is read from it. * marks the point of attachment. Trp(1-CH2COOH) = N[C@@H](Cc1cn(CC(=O)O)c2ccccc12)C(=O)O; NMePhe(4-COOH) = CN[C@@H](Cc1ccc(C(=O)O)cc1)C(=O)O; Ala(2-NH2-4-pyridyl) = Nc1cc(C[C@H](N)C(=O)O)ccn1; Phe(3-COOH) = N[C@@H](Cc1cccc(C(=O)O)c1)C(=O)O; Trp(7-aza) = N[C@@H](Cc1c[nH]c2ncccc12)C(=O)O; NH(CH2CH2O)8Me = COCCOCCOCCOCCOCCOCCOCCOCCN*; NMePhe(3-Cl) = CN[C@@H](Cc1cccc(Cl)c1)C(=O)O; 3Pal(6-OMe) = COc1ccc(C[C@H](N)C(=O)O)cn1; X5 = COc1cc(C[C@H](N[*:1])C(=O)[*:2])ccn1; 3Pal(6-NH2) = Nc1ccc(C[C@H](N)C(=O)O)cn1; X3 = Cc1ccc(C[C@H](N[*:1])C(=O)[*:2])cn1; Tyr(3-Me) = Cc1cc(C[C@H](N)C(=O)O)ccc1O; NMeY = CN[C@@H](Cc1ccc(O)cc1)C(=O)O; Nva(3-Et) = CCC(CC)[C@H](N)C(=O)O; 3Pal = N[C@@H](Cc1cccnc1)C(=O)O; PEG4 = NCCOCCOCCOCCOCCC(=O)O; Carboxymethyl = O=C(O)C*

Columns and labels:
[1] = molecular target: T1, human transferrin receptor (hTfR) (Homo sapiens, UniProt P02786); assay: SPR measurement under pH 7.4 conditions (Biacore T200, CM3 chip, hTfR captured by His Tag antibody); type: binding; details: SPR, pH 7.4; peptide with the linker named in the table; read-out: hTfR SPR pH7.4 KD
[2] = molecular target: T1, human transferrin receptor (hTfR); assay: SPR measurement under pH 6.0 conditions (Biacore T200, NTA chip, immobilized hTfR); type: binding; details: SPR, pH 6.0; peptide with the linker named in the table; read-out: hTfR SPR pH6.0 KD

T1 sequence (P02786 whole entry): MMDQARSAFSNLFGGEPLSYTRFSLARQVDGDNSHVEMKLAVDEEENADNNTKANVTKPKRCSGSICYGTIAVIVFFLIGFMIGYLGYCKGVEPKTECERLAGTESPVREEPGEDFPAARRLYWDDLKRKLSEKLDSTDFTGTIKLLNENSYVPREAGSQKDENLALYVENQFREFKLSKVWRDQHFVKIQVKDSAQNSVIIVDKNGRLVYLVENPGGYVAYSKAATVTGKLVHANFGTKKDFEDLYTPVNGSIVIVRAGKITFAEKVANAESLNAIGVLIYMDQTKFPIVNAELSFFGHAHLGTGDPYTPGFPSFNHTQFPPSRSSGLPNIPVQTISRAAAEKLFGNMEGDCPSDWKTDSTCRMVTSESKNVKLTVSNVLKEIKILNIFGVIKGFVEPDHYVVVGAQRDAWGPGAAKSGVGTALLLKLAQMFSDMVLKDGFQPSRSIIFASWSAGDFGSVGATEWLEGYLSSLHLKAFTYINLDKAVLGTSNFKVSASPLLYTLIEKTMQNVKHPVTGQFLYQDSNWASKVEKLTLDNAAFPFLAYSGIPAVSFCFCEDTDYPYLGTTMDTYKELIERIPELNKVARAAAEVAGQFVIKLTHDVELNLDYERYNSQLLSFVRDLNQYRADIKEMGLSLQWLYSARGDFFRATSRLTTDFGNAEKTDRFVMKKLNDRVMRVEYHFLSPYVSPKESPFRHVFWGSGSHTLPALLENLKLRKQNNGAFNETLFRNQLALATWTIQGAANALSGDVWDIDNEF

Row | SMILES | Kd [1] | Kd [2]
1 | CCC(CC)[C@@H]1NC(=O)[C@H](Cc2ccc(OCC(=O)O)cc2)NC(=O)[C@H](Cc2ccc(O)cc2)NC(=O)[C@H](CC(N)=O)NC(=O)[C@H](Cc2cn(CC(=O)O)c3ccccc23)NC(=O)[C@H](C(C)C)NC(=O)[C@H](Cc2cccc(Cl)c2)N(C)C(=O)[C@H](C(C)C)NC(=O)[C@H](C)NC(=O)CSC[C@@H](C(=O)NCCOCCOCCOCCOCCC(N)=O)NC(=O)[C@H](Cc2ccc(O)cc2)N(C)C(=O)[C@H](Cc2ccc(O)c(C)c2)NC(=O)[C@H](CCCNC(=N)N)NC(=O)[C@H](CCC(N)=O)NC(=O)[C@H]([C@@H](C)CC)NC1=O [compound 99] ({CH2CO}-AV[NMePhe(3-Cl)]V[Trp(1-CH2COOH)]NYY(Carboxymethyl)[Nva(3-Et)]IQR[Tyr(3-Me)][NMeY]C[PEG4]-NH2; thioether N-15) | 9.08 nM | 56.2 nM
2 | CCC(CC)[C@@H]1NC(=O)[C@H](Cc2ccc(OCC(=O)O)cc2)NC(=O)[C@H](Cc2ccc(O)cc2)NC(=O)[C@H](CC(N)=O)NC(=O)[C@H](Cc2cn(CC(=O)O)c3ccccc23)NC(=O)[C@H](C(C)C)NC(=O)[C@H](Cc2cccc(Cl)c2)N(C)C(=O)[C@H](C(C)C)NC(=O)[C@H](C)NC(=O)CSC[C@@H](C(=O)NCCOCCOCCOCCOCCC(N)=O)NC(=O)[C@H](Cc2ccc(O)cc2)N(C)C(=O)[C@H](Cc2ccc(C)nc2)NC(=O)[C@H](CCCNC(=N)N)NC(=O)[C@H](CCC(N)=O)NC(=O)[C@H]([C@@H](C)CC)NC1=O [compound 100] ({CH2CO}-AV[NMePhe(3-Cl)]V[Trp(1-CH2COOH)]NYY(Carboxymethyl)[Nva(3-Et)]IQR[X3][NMeY]C[PEG4]-NH2; thioether N-15) | 12.7 nM | 113 nM
3 | CCC(CC)[C@@H]1NC(=O)[C@H](Cc2ccc(OCC(=O)O)cc2)NC(=O)[C@H](Cc2ccc(O)cc2)NC(=O)[C@H](CC(N)=O)NC(=O)[C@H](Cc2cn(CC(=O)O)c3ccccc23)NC(=O)[C@H](C(C)C)NC(=O)[C@H](Cc2cccc(Cl)c2)N(C)C(=O)[C@H](C(C)C)NC(=O)[C@H](C)NC(=O)CSC[C@@H](C(=O)NCCOCCOCCOCCOCCC(N)=O)NC(=O)[C@H](Cc2ccc(O)cc2)N(C)C(=O)[C@H](Cc2ccc(OC)nc2)NC(=O)[C@H](CCCNC(=N)N)NC(=O)[C@H](CCC(N)=O)NC(=O)[C@H]([C@@H](C)CC)NC1=O [compound 101] ({CH2CO}-AV[NMePhe(3-Cl)]V[Trp(1-CH2COOH)]NYY(Carboxymethyl)[Nva(3-Et)]IQR[3Pal(6-OMe)][NMeY]C[PEG4]-NH2; thioether N-15) | 8.63 nM | 66.7 nM
4 | CCC(CC)[C@@H]1NC(=O)[C@H](Cc2ccc(OCC(=O)O)cc2)NC(=O)[C@H](Cc2ccc(O)cc2)NC(=O)[C@H](CC(N)=O)NC(=O)[C@H](Cc2cn(CC(=O)O)c3ccccc23)NC(=O)[C@H](C(C)C)NC(=O)[C@H](Cc2cccc(Cl)c2)N(C)C(=O)[C@H](C(C)C)NC(=O)[C@H](C)NC(=O)CSC[C@@H](C(=O)NCCOCCOCCOCCOCCC(N)=O)NC(=O)[C@H](Cc2ccc(O)cc2)N(C)C(=O)[C@H](Cc2ccc(N)nc2)NC(=O)[C@H](CCCNC(=N)N)NC(=O)[C@H](CCC(N)=O)NC(=O)[C@H]([C@@H](C)CC)NC1=O [compound 102] ({CH2CO}-AV[NMePhe(3-Cl)]V[Trp(1-CH2COOH)]NYY(Carboxymethyl)[Nva(3-Et)]IQR[3Pal(6-NH2)][NMeY]C[PEG4]-NH2; thioether N-15) | 9.81 nM | 76.4 nM
5 | CCC(CC)[C@@H]1NC(=O)[C@H](Cc2ccc(OCC(=O)O)cc2)NC(=O)[C@H](Cc2ccc(O)cc2)NC(=O)[C@H](CC(N)=O)NC(=O)[C@H](Cc2cn(CC(=O)O)c3ccccc23)NC(=O)[C@H](C(C)C)NC(=O)[C@H](Cc2cccc(Cl)c2)N(C)C(=O)[C@H](C(C)C)NC(=O)[C@H](C)NC(=O)CSC[C@@H](C(=O)NCCOCCOCCOCCOCCC(N)=O)NC(=O)[C@H](Cc2ccc(O)cc2)N(C)C(=O)[C@H](Cc2ccnc(OC)c2)NC(=O)[C@H](CCCNC(=N)N)NC(=O)[C@H](CCC(N)=O)NC(=O)[C@H]([C@@H](C)CC)NC1=O [compound 103] ({CH2CO}-AV[NMePhe(3-Cl)]V[Trp(1-CH2COOH)]NYY(Carboxymethyl)[Nva(3-Et)]IQR[X5][NMeY]C[PEG4]-NH2; thioether N-15) | 11.5 nM | 95 nM
6 | CCC(CC)[C@@H]1NC(=O)[C@H](Cc2ccc(OCC(=O)O)cc2)NC(=O)[C@H](Cc2ccc(O)cc2)NC(=O)[C@H](CC(N)=O)NC(=O)[C@H](Cc2cn(CC(=O)O)c3ccccc23)NC(=O)[C@H](C(C)C)NC(=O)[C@H](Cc2cccc(Cl)c2)N(C)C(=O)[C@H](C(C)C)NC(=O)[C@H](C)NC(=O)CSC[C@@H](C(=O)NCCOCCOCCOCCOCCC(N)=O)NC(=O)[C@H](Cc2ccc(O)cc2)N(C)C(=O)[C@H](Cc2ccnc(N)c2)NC(=O)[C@H](CCCNC(=N)N)NC(=O)[C@H](CCC(N)=O)NC(=O)[C@H]([C@@H](C)CC)NC1=O [compound 104] ({CH2CO}-AV[NMePhe(3-Cl)]V[Trp(1-CH2COOH)]NYY(Carboxymethyl)[Nva(3-Et)]IQR[Ala(2-NH2-4-pyridyl)][NMeY]C[PEG4]-NH2; thioether N-15) | 10.7 nM | 78.2 nM
7 | CCC(CC)[C@@H]1NC(=O)[C@H](Cc2ccc(OCC(=O)O)cc2)NC(=O)[C@H](Cc2ccc(O)cc2)NC(=O)[C@H](CC(N)=O)NC(=O)[C@H](Cc2cn(CC(=O)O)c3ccccc23)NC(=O)[C@H](C(C)C)NC(=O)[C@H](Cc2cccc(Cl)c2)N(C)C(=O)[C@H](C(C)C)NC(=O)[C@H](C)NC(=O)CSC[C@@H](C(=O)NCCOCCOCCOCCOCCC(N)=O)NC(=O)[C@H](Cc2ccc(O)cc2)N(C)C(=O)[C@H](Cc2cccnc2)NC(=O)[C@H](CCCNC(=N)N)NC(=O)[C@H](CCC(N)=O)NC(=O)[C@H]([C@@H](C)CC)NC1=O [compound 105] ({CH2CO}-AV[NMePhe(3-Cl)]V[Trp(1-CH2COOH)]NYY(Carboxymethyl)[Nva(3-Et)]IQR[3Pal][NMeY]C[PEG4]-NH2; thioether N-15) | 10.6 nM | 67.9 nM
8 | CCC(CC)[C@@H]1NC(=O)[C@H](Cc2ccc(OCC(=O)O)cc2)NC(=O)[C@H](Cc2ccc(O)cc2)NC(=O)[C@H](CC(N)=O)NC(=O)[C@H](Cc2c[nH]c3ncccc23)NC(=O)[C@H](C(C)C)NC(=O)[C@H](Cc2cccc(Cl)c2)N(C)C(=O)[C@H](C(C)C)NC(=O)[C@H](C)NC(=O)CSC[C@@H](C(=O)NCCOCCOCCOCCOCCC(N)=O)NC(=O)[C@H](Cc2ccc(O)cc2)N(C)C(=O)[C@H](Cc2cccc(C(=O)O)c2)NC(=O)[C@H](CCCNC(=N)N)NC(=O)[C@H](CCC(=O)NCCOCCOCCOCCOCCOCCOCCOCCOC)NC(=O)[C@H]([C@@H](C)CC)NC1=O [compound 106] ({CH2CO}-AV[NMePhe(3-Cl)]V[Trp(7-aza)]NYY(Carboxymethyl)[Nva(3-Et)]IE(NH(CH2CH2O)8Me)R[Phe(3-COOH)][NMeY]C[PEG4]-NH2; thioether N-15) | 26 nM | 90.1 nM
9 | CCC(CC)[C@@H]1NC(=O)[C@H](Cc2ccc(OCC(=O)O)cc2)NC(=O)[C@H](Cc2ccc(O)cc2)NC(=O)[C@H](CC(N)=O)NC(=O)[C@H](Cc2c[nH]c3ncccc23)NC(=O)[C@H](C(C)C)NC(=O)[C@H](Cc2cccc(Cl)c2)N(C)C(=O)[C@H](C(C)C)NC(=O)[C@H](C)NC(=O)CSC[C@@H](C(=O)NCCOCCOCCOCCOCCC(N)=O)NC(=O)[C@H](Cc2ccc(C(=O)O)cc2)N(C)C(=O)[C@H](Cc2cccc(C(=O)O)c2)NC(=O)[C@H](CCCNC(=N)N)NC(=O)[C@H](CCC(N)=O)NC(=O)[C@H]([C@@H](C)CC)NC1=O [compound 108] ({CH2CO}-AV[NMePhe(3-Cl)]V[Trp(7-aza)]NYY(Carboxymethyl)[Nva(3-Et)]IQR[Phe(3-COOH)][NMePhe(4-COOH)]C[PEG4]-NH2; thioether N-15) | 13.9 nM | 36.1 nM
